Tests used:
Assay type in all cases: in vivo
Design in all cases: scale not given here
China jute (Ab) [1] = test: Test Example 6: crop plant selectivity by upland field soil treatment (soybean), herbicidal effects; conditions: 21st day after application
How it was run: (§1)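 Seeds are sown in sand and covered with soil. The soil is treated with test compound. Pots are kept in a greenhouse. Weed control and soybean damage are rated visually 21 days after application.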

green foxtail (Se) [2] = test: as above; conditions: 21st day after application
How it was run: as §1

[3] = system: common lambsquarters (Ch); test: as above; conditions: 21st day after application
How it was run: as §1

pale smartweed (Po) [4] = test: as above; conditions: 21st day after application
How it was run: as §1

China jute (Ab) [5] = test: Test Example 5: crop plant selectivity by upland field soil treatment (wheat), herbicidal effects; conditions: 21st day after application
How it was run: (§2)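 Upland soil-treatment selectivity test: crop and weed seeds are sown together in sand-filled pots, soil-covered, then treated and grown under glass until rating at 21 days.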

slender amaranth (Am) = test: as above; conditions: 21st day after application
How it was run: as §2

green foxtail (Se) [6] = test: as above; conditions: 21st day after application
How it was run: as §2

[7] = system: common lambsquarters (Ch); test: as above; conditions: 21st day after application
How it was run: as §2

pale smartweed (Po) [8] = test: as above; conditions: 21st day after application
How it was run: as §2

cotton (Go) = test: Test Example 4: crop plant selectivity by upland field soil treatment (cotton), phytotoxicity; conditions: evaluated 21st day after application
How it was run: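 Cotton is sown alongside weeds in pots of sand, covered with soil, and the soil surface is treated. After greenhouse growth, herbicidal activity and phytotoxicity are graded on the 21st day.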

Compound | Herbicidal effects Ab (China jute (Ab) [1]; dose 6.3 g ai/10a) | Herbicidal effects Se (green foxtail (Se) [2]; dose 6.3 g ai/10a) | Herbicidal effects Ch ([3]; dose 6.3 g ai/10a) | Herbicidal effects Po (pale smartweed (Po) [4]; dose 6.3 g ai/10a) | Herbicidal effects Ab (China jute (Ab) [5]; dose 6.3 g ai/10a) | Herbicidal effects Am (slender amaranth (Am); dose 6.3 g ai/10a) | Herbicidal effects Se (green foxtail (Se) [6]; dose 6.3 g ai/10a) | Herbicidal effects Ch ([7]; dose 6.3 g ai/10a) | Herbicidal effects Po (pale smartweed (Po) [8]; dose 6.3 g ai/10a) | Phytotoxicity Go (cotton (Go); dose 6.3 g ai/10 a) | Herbicidal effects Ab (China jute (Ab) [1]; dose 1.6 g ai/10a) | Herbicidal effects Se (green foxtail (Se) [2]; dose 1.6 g ai/10a) | Herbicidal effects Ch ([3]; dose 1.6 g ai/10a) | Herbicidal effects Po (pale smartweed (Po) [4]; dose 1.6 g ai/10a) | Herbicidal effects Ab (China jute (Ab) [5]; dose 1.6 g ai/10a) | Herbicidal effects Am (slender amaranth (Am); dose 1.6 g ai/10a) | Herbicidal effects Se (green foxtail (Se) [6]; dose 1.6 g ai/10a) | Herbicidal effects Ch ([7]; dose 1.6 g ai/10a) | Herbicidal effects Po (pale smartweed (Po) [8]; dose 1.6 g ai/10a) | Phytotoxicity Go (cotton (Go); dose 1.6 g ai/10 a)
CCCc1cc2c(-c3ccc(C(F)(F)F)n(C)c3=O)c(F)cc(Cl)c2o1 [Compound 4-3] | 5 | 5 | 5 | 5 | 5 | 5 | 5 | 5 | 5 | 0 |  |  |  |  |  |  |  |  |  | 
CCc1cc2c(Cl)cc(F)c(-c3ccc(C(F)(F)F)n(C)c3=O)c2o1 [Compound 5-2] | 5 | 5 | 5 | 5 | 5 | 5 | 5 | 5 | 5 | 1 |  |  |  |  |  |  |  |  |  | 
CON=Cc1cc(-c2ccc(C(F)(F)F)n(C)c2=O)c(F)cc1Cl [Compound No. 1-72, 5-(1-methyl-6-trifluoromethyl-2(1H)-pyridon-3-yl)-2-chloro-4-fluorobenzaldehydeoxime-O-methyl ether] | 5 | 5 | 5 | 5 |  |  |  |  |  | 0 | 5 | 5 | 5 | 5 | 5 | 5 | 5 | 5 | 5 | 0
CCCC(=O)c1cc(-c2ccc(C(F)(F)F)n(C)c2=O)c(F)cc1Cl [Compound No. 1-194, 3-[4-chloro-2-fluoro-5-(1-oxobutyl)phenyl]-1-methyl-6-trifluoromethyl-2(1H)-pyridone] | 5 | 5 | 5 | 5 | 5 | 5 | 5 | 5 | 5 | 1 |  |  |  |  |  |  |  |  |  | 
C#CCN1C(=O)COc2cc(F)c(-c3ccc(C(F)(F)F)n(C)c3=O)cc21 [Compound No. 2-1, 3-[7-fluoro-2,3-dihydro-4-(2-propynyl)-1,4-benzoxazin-3-on-6-yl]-1-methyl-6-trifluoromethyl-2(1H)-pyridone] | 5 | 5 | 5 | 5 |  |  |  |  |  |  | 5 | 5 | 5 | 5 | 5 | 5 | 5 | 5 | 5 | 2
C#CCn1c(=O)sc2cc(F)c(-c3ccc(C(F)(F)F)n(C)c3=O)cc21 [Compound No. 3-1, 3-[6-fluoro-3-(2-propynyl)-benzothiazolin-2-on-5-yl]-1-methyl-6-trifluoromethyl-2(1H)-pyridone] | 5 | 5 | 5 | 5 | 5 | 5 | 5 | 5 | 5 | 1 |  |  |  |  |  |  |  |  |  | 0
COCc1cc2c(-c3ccc(C(F)(F)F)n(C)c3=O)c(F)cc(Cl)c2o1 [Compound No. 4-4, 3-(7-chloro-5-fluoro-2-methoxymethylbenzofuran-4-yl)-1-methyl-6-trifluoromethyl-2-(1H)-pyridone] | 5 | 5 | 5 | 5 |  |  |  |  |  | 1 |  |  |  |  | 5 | 5 | 5 | 5 | 5 | 0
Cn1c(C(F)(F)F)ccc(-c2c(F)cc(Cl)c3oc(CO)cc23)c1=O [Compound No. 4-5, 3-(7-chloro-5-fluoro-2-hydroxymethylbenzofuran-4-yl)-1-methyl-6-trifluoromethyl-2-(1H)-pyridone] | 5 | 5 | 5 | 5 | 5 | 5 | 5 | 5 | 5 | 2 |  |  |  |  |  |  |  |  |  | 
Cn1c(C(F)(F)F)ccc(-c2c(F)cc(Cl)c3occc23)c1=O [Compound No. 4-28, 3-(7-chloro-5-fluorobenzofuran-4-yl)-1-methyl-6-trifluoromethyl-2-(1H)-pyridone] |  |  |  |  | 5 | 5 | 5 | 5 | 5 | 1 | 5 | 5 | 5 | 5 |  |  |  |  |  | 0
Cn1cc(-c2cc(Oc3ccccc3)c(Cl)cc2F)c(=O)cc1C(F)(F)F [Compound No. 6-19, 5-(4-chloro-2-fluoro-5-phenoxyphenyl)-1-methyl-2-trifluoromethyl-4(1H)-pyridone] | 5 | 5 | 5 | 5 | 5 | 5 | 5 | 5 | 5 | 0 | 3 | 5 | 3 | 5 | 3 | 5 | 5 | 5 | 5 | 0
